Test results as given in patent US20070155772A1, “Use of genetic polymorphisms that associate with efficacy of treatment of inflammatory disease” (priority 2003, published 2007).
Several values for one entry are separate records, joined by “and”; a condition that tells them apart may be missing. Identical values can stand only once.

What was measured:
[1] = test system: pediatric subjects with moderate atopic dermatitis; assay: Phase IIIb trial, efficacy by Investigator global assessment (IGA) score on day 43; assay type: in vivo, human; conditions: for Efficacy (IGA): number of patients that experienced efficacy / Efficacy (IGA): percent of patients that experienced efficacy: IGA score of 0 or 1 on day 43
Source text: The genetic locus was identified in a Phase IIIb trial that was designed as a head to head comparison of pimecrolimus cream 1% and tacrolimus ointment 0.03%. The six-week investigator-blinded trial of pediatric subjects with moderate atopic dermatitis explored the incidence of local application site reactions induced by the two topical macrolactams, as well as their efficacy, safety and cosmetic acceptability. Blood samples for pharmacogenetic analysis were collected from consenting participants in the clinical trial, to define a genetic basis for response to either treatment. Statistical analysis. Investigator global assessment (IGA) scores were used as the primary marker of efficacy in the pharmacogenetic studies. IGA scores at the end of the Investigator Blinded phase of the trial (Day 43) were used as the main time-point for comparison. Last observation carried forward imputations were only required for one subject at day 43. In this case, there was no IGA score available after Day 29, and the score on this day was used in place of a day 43 IGA score. IGA scores were re-coded, as was done to assess efficacy in the trial itself. An IGA score of 0 or 1 was considered successful treatment and IGA scores of 2-5 were counted as treatment failure. The severity of pruritus was also used as a marker of efficacy. Pruritus scores were dichotomized into absence (score=0) or presence (score=1, 2 or 3) of pruritus. The fisher's exact model was employed to examine the genotype effect on each efficacy variable. All statistical analyses were done using SAS version 8.2 software.

[2] = test system: pediatric subjects with moderate atopic dermatitis; assay: Phase IIIb trial, severity of pruritus score on day 43; assay type: in vivo, human
Source text: The genetic locus was identified in a Phase IIIb trial that was designed as a head to head comparison of pimecrolimus cream 1% and tacrolimus ointment 0.03%. The six-week investigator-blinded trial of pediatric subjects with moderate atopic dermatitis explored the incidence of local application site reactions induced by the two topical macrolactams, as well as their efficacy, safety and cosmetic acceptability. Blood samples for pharmacogenetic analysis were collected from consenting participants in the clinical trial, to define a genetic basis for response to either treatment.
Statistical analysis. Investigator global assessment (IGA) scores were used as the primary marker of efficacy in the pharmacogenetic studies. IGA scores at the end of the Investigator Blinded phase of the trial (Day 43) were used as the main time-point for comparison. Last observation carried forward imputations were only required for one subject at day 43. In this case, there was no IGA score available after Day 29, and the score on this day was used in place of a day 43 IGA score. IGA scores were re-coded, as was done to assess efficacy in the trial itself. An IGA score of 0 or 1 was considered successful treatment and IGA scores of 2-5 were counted as treatment failure. The severity of pruritus was also used as a marker of efficacy. Pruritus scores were dichotomized into absence (score=0) or presence (score=1, 2 or 3) of pruritus. The fisher's exact model was employed to examine the genotype effect on each efficacy variable. All statistical analyses were done using SAS version 8.2 software.
Association between polymorphic markers and relief from pruritus. A secondary efficacy variable used in the trial was pruritus. An analysis was done to see if ASN60THR LTA and (−1031) TNF associated with this efficacy variable (assessed on day 43).

[3] = (−1031) TNF genotype CC, day 43
[4] = (−1031) TNF genotype CT, day 43
[5] = (−1031) TNF genotype TT, day 43
[6] = ASN60THR LTA genotype AA, day 43
[7] = ASN60THR LTA genotype AC, day 43
[8] = ASN60THR LTA genotype CC, day 43
[9] = all (−1031) TNF genotypes, day 43
[10] = all ASN60THR LTA genotypes, day 43
[11] = patients with a C allele (CC or CT) at (−1031) TNF, day 43

CC[C@@H]1/C=C(\C)C[C@H](C)C[C@H](OC)[C@H]2O[C@@](O)(C(=O)C(=O)N3CCCC[C@H]3C(=O)O[C@H](/C(C)=C/[C@@H]3CC[C@H](Cl)[C@H](OC)C3)[C@H](C)[C@@H](O)CC1=O)[C@H](C)C[C@@H]2OC [pimecrolimus]
No success (IGA ≧ 2), number of individuals [1, 3]: 1 | No success (IGA ≧ 2), percent [1, 3]: 100% | Success (IGA = 0 or 1), number of individuals [1, 3]: 0 (0%) | Success (IGA = 0 or 1), percent [1, 3]: 0 (0%) | No success (IGA ≧ 2), number of individuals [1, 4]: 9 | No success (IGA ≧ 2), percent [1, 4]: 100% | Success (IGA = 0 or 1), number of individuals [1, 4]: 0 | Success (IGA = 0 or 1), percent [1, 4]: 100% | No success (IGA ≧ 2), number of individuals [1, 5]: 4 | No success (IGA ≧ 2), percent [1, 5]: 33% | Success (IGA = 0 or 1), number of individuals [1, 5]: 8 | Success (IGA = 0 or 1), percent [1, 5]: 67% | No success (IGA ≧ 2), number of individuals [1, 6]: 0 (0%) | No success (IGA ≧ 2), percent [1, 6]: 0 (0%) | Success (IGA = 0 or 1), number of individuals [1, 6]: 3/3 and 3 | Success (IGA = 0 or 1), percent [1, 6]: 100% | No success (IGA ≧ 2), number of individuals [1, 7]: 6 | No success (IGA ≧ 2), percent [1, 7]: 60% | Success (IGA = 0 or 1), number of individuals [1, 7]: 4/10 and 4 | Success (IGA = 0 or 1), percent [1, 7]: 40% | No success (IGA ≧ 2), number of individuals [1, 8]: 8 | No success (IGA ≧ 2), percent [1, 8]: 89% | Success (IGA = 0 or 1), number of individuals [1, 8]: 1 | Success (IGA = 0 or 1), percent [1, 8]: 11% | No success (IGA ≧ 2), number of individuals ([1]; LTB (TWT#128095) genotype AC): 0 | No success (IGA ≧ 2), percent ([1]; LTB (TWT#128095) genotype AC): 50% | Success (IGA = 0 or 1), number of individuals ([1]; LTB (TWT#128095) genotype AC): 1 | Success (IGA = 0 or 1), percent ([1]; LTB (TWT#128095) genotype AC): 100% | No success (IGA ≧ 2), number of individuals ([1]; LTB (TWT#128095) genotype CC): 12 | No success (IGA ≧ 2), percent ([1]; LTB (TWT#128095) genotype CC): 63% | Success (IGA = 0 or 1), number of individuals ([1]; LTB (TWT#128095) genotype CC): 7 | Success (IGA = 0 or 1), percent ([1]; LTB (TWT#128095) genotype CC): 37% | Efficacy (IGA): number of patients that experienced efficacy ([1]; Pharmacogenomics samples): 8 | Efficacy (IGA): percent of patients that experienced efficacy ([1]; Pharmacogenomics samples): 36% | Efficacy (IGA): number of patients that experienced efficacy ([1]; Trial subjects): 22 | Efficacy (IGA): percent of patients that experienced efficacy ([1]; Trial subjects): 32% | No success (IGA ≧ 2), number of individuals, Total [1, 9]: 14 | Success (IGA = 0 or 1), number of individuals, Total [1, 9]: 8 | No success (IGA ≧ 2), number of individuals, Total [1, 10]: 13 | Success (IGA = 0 or 1), number of individuals, Total [1, 10]: 7 | No success (IGA ≧ 2), number of individuals, Total ([1]; all LTB (TWT#128095) genotypes): 12 | Success (IGA = 0 or 1), number of individuals, Total ([1]; all LTB (TWT#128095) genotypes): 8 | subjects that responded to treatment (IGA) [1, 11]: None and No patient | success / response rate (IGA) [1, 11]: 0% | Pruritus (day 43) score 0, percent of subjects ([2]; Pharmacogenomics samples): 10% | Pruritus (day 43) score 1, number of subjects ([2]; Pharmacogenomics samples): 14 | Pruritus (day 43) score 1, percent of subjects ([2]; Pharmacogenomics samples): 67% | Pruritus (day 43) score 2, number of subjects ([2]; Pharmacogenomics samples): 3 | Pruritus (day 43) score 2, percent of subjects ([2]; Pharmacogenomics samples): 14% | Pruritus (day 43) score 3, number of subjects ([2]; Pharmacogenomics samples): 2 | Pruritus (day 43) score 3, percent of subjects ([2]; Pharmacogenomics samples): 10% | Pruritus (day 43) score 0, number of subjects ([2]; Trial subjects): 9 | Pruritus (day 43) score 0, percent of subjects ([2]; Trial subjects): 13% | Pruritus (day 43) score 1, number of subjects ([2]; Trial subjects): 35 | Pruritus (day 43) score 1, percent of subjects ([2]; Trial subjects): 49% | Pruritus (day 43) score 2, number of subjects ([2]; Trial subjects): 15 | Pruritus (day 43) score 2, percent of subjects ([2]; Trial subjects): 21% | Pruritus (day 43) score 3, number of subjects ([2]; Trial subjects): 10 | Pruritus (day 43) score 3, percent of subjects ([2]; Trial subjects): 14%
